Test results: PubChem BioAssay AID248 (DTP/NCI, 2004)
Several values for one entry are separate records, joined by “and”; a condition that tells them apart may be missing. Identical values can stand only once. Toxic doses and inconclusive results are not listed. Cut-off read from the data, not from the text of the source: active = T/C of 150% or more; inactive = T/C below 125%.

Test system: L1210 leukemia ip in BDF1 mice, survival T/C
Experiment: NCI In Vivo Anticancer Drug Screen. Data for tumor model L1210 Leukemia (intraperitoneal) in B6D2F1 (BDF1) mice
Conditions: endpoint: mean survival time, higher = longer survival
Method in brief: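 Antitumor effect is assessed in tumor-bearing animals. Survival in the compound arm is compared with a vehicle-dosed control arm and expressed as their quotient.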

[1] = dose: 100.0 mg/kg/injection, schedule: Q01DX001 (ip), vehicle: saline
[2] = dose: 200.0 mg/kg/injection, schedule: Q01DX001 (ip), vehicle: saline
[3] = dose: 400.0 mg/kg/injection, schedule: Q01DX001 (ip), vehicle: saline
[4] = dose: 100.0 mg/kg/injection, schedule: Q04DX003 (ip), vehicle: saline with Tween-80
[5] = dose: 200.0 mg/kg/injection, schedule: Q04DX003 (ip), vehicle: saline with Tween-80
[6] = dose: 400.0 mg/kg/injection, schedule: Q04DX003 (ip), vehicle: saline with Tween-80
[7] = dose: 25.0 mg/kg/injection, schedule: Q04DX003 (ip), vehicle: Klucel (hydroxypropylcellulose) (HPC)
[8] = dose: 100.0 mg/kg/injection, schedule: Q04DX003 (ip), vehicle: Klucel (hydroxypropylcellulose) (HPC)
[9] = dose: 200.0 mg/kg/injection, schedule: Q04DX003 (ip), vehicle: Klucel (hydroxypropylcellulose) (HPC)
[10] = dose: 12.5 mg/kg/injection, schedule: Q04DX003 (ip), vehicle: saline with Tween-80
[11] = dose: 25.0 mg/kg/injection, schedule: Q04DX003 (ip), vehicle: saline with Tween-80
[12] = dose: 100.0 mg/kg/injection, schedule: Q04DX002 (ip), vehicle: saline
[13] = dose: 200.0 mg/kg/injection, schedule: Q04DX002 (ip), vehicle: saline
[14] = dose: 400.0 mg/kg/injection, schedule: Q04DX003 (ip), vehicle: Klucel (hydroxypropylcellulose) (HPC)
[15] = dose: 5.0 mg/kg/injection, schedule: Q01DX001 (ip), vehicle: saline
[16] = dose: 10.0 mg/kg/injection, schedule: Q01DX001 (ip), vehicle: saline
[17] = dose: 20.0 mg/kg/injection, schedule: Q01DX001 (ip), vehicle: saline
[18] = dose: 40.0 mg/kg/injection, schedule: Q01DX001 (ip), vehicle: saline
[19] = dose: 50.0 mg/kg/injection, schedule: Q01DX009 (ip), vehicle: saline
[20] = dose: 50.0 mg/kg/injection, schedule: Q04DX003 (ip), vehicle: saline
[21] = dose: 100.0 mg/kg/injection, schedule: Q04DX003 (ip), vehicle: saline
[22] = dose: 100.0 mg/kg/injection, schedule: Q01DX009 (ip), vehicle: saline with Tween-80

Measured: T/C

OC1C(O)C(O)C2(CO2)C(O)C1O (stereo unspecified)
inactive: dose: 600.0 mg/kg/injection, schedule: Q01DX Z (ip), vehicle: saline 112 % of control

CCN(CC)c1ccc(N=C2C=C(C(=O)Nc3ccccc3OC)C(=O)c3ccccc32)c(C)c1
inactive: [1] 102 % of control | [2] 105 % of control | [3] 96 % of control

COC(=O)C1C2C=CC(C2)C1C(=O)OC (stereo unspecified)
inactive: [4] 99 % of control | [5] 105 % of control | [6] 92 % of control

O=C(COC(=O)c1ccccc1C(=O)c1ccccc1O)c1ccc(-c2ccccc2)cc1
inactive: [2] 91 % of control | [3] 91 % of control

O=[As](O)(O)c1ccc(Cl)cc1C(F)(F)F
inactive: dose: 6.25 mg/kg/injection, schedule: Q04DX003 (ip), vehicle: Klucel (hydroxypropylcellulose) (HPC) 97 % of control | dose: 12.5 mg/kg/injection, schedule: Q04DX003 (ip), vehicle: Klucel (hydroxypropylcellulose) (HPC) 100 % of control | [7] 101 % of control and 103 % of control | [8] 101 % of control | [9] 103 % of control

O=C(c1ccccc1)C1(c2ccccc2)OP(c2ccccc2)(c2ccccc2)(c2ccccc2)CC1c1ccccc1 (stereo unspecified)
inactive: [10] 90 % of control | [11] 92 % of control

COc1cc2c(cc1O)C(CCc1cc(OC)c(OC)c(OC)c1)=NCC2
inactive: dose: 50.0 mg/kg/injection, schedule: Q04DX002 (ip), vehicle: saline 101 % of control | [12] 104 % of control | [13] 104 % of control

CC1(ON(c2cc(Cl)cc(Cl)c2)C2(C)c3ccccc3-c3ccccc32)c2ccccc2-c2ccccc21
inactive: [4] 88 % of control | [5] 97 % of control

Cn1c(=O)c2ccccc2c2cc(Cl)ccc21
inactive: dose: 100.0 mg/kg/injection, schedule: Q01DX009 (ip), vehicle: Klucel (hydroxypropylcellulose) (HPC) 94 % of control | [8] 96 % of control | [9] 96 % of control | [14] 93 % of control

CCC(CO)Nc1nc2cc(Cl)ccc2c2ccc(Cl)cc12 (stereo unspecified)
inactive: [8] 102 % of control | [9] 100 % of control | [14] 103 % of control

O=S(=O)(c1ccc(OCC(O)COc2ccc(S(=O)(=O)c3ccc(OCC4CO4)cc3)cc2)cc1)c1ccc(OCC2CO2)cc1 (stereo unspecified)
inactive: [1] 106 % of control | [2] 109 % of control | [3] 104 % of control

CCCCC(/C=N/N=C(N)N)=N\N=C(N)N
inactive: dose: 15.0 mg/kg/injection, schedule: Q01DX Z (ip), vehicle: saline 95 % of control | dose: 15.0 mg/kg/injection, schedule: Q01DX Z (oral), vehicle: saline 98 % of control | dose: 30.0 mg/kg/injection, schedule: Q01DX Z (ip), vehicle: saline 103 % of control | dose: 30.0 mg/kg/injection, schedule: Q01DX Z (oral), vehicle: saline 91 % of control | dose: 60.0 mg/kg/injection, schedule: Q01DX Z (oral), vehicle: saline 91 % of control | dose: 120.0 mg/kg/injection, schedule: Q01DX Z (oral), vehicle: saline 94 % of control

COc1cc(CNC(=O)/C(C)=C/Cl)ccc1O
inactive: [10] 96 % of control | [11] 96 % of control | dose: 50.0 mg/kg/injection, schedule: Q04DX003 (ip), vehicle: saline with Tween-80 103 % of control

c1cc[c]([Sn]([S]c2ccccn2)([c]2ccccc2)[c]2ccccc2)cc1
inactive: dose: 6.25 mg/kg/injection, schedule: Q04DX002 (ip), vehicle: saline with Tween-80 93 % of control | dose: 12.5 mg/kg/injection, schedule: Q04DX002 (ip), vehicle: saline with Tween-80 93 % of control | dose: 25.0 mg/kg/injection, schedule: Q04DX002 (ip), vehicle: saline with Tween-80 108 % of control

CC(=O)n1cc(/C=C2\N=C(c3ccc([N+](=O)[O-])cc3)OC2=O)c2ccccc21
inactive: dose: 100.0 mg/kg/injection, schedule: Q04DX002 (ip), vehicle: saline with Tween-80 95 % of control | dose: 200.0 mg/kg/injection, schedule: Q04DX002 (ip), vehicle: saline with Tween-80 109 % of control | dose: 400.0 mg/kg/injection, schedule: Q04DX002 (ip), vehicle: saline with Tween-80 92 % of control

CC(C)(C)C1COP(=O)(OCc2ccccc2)OC1 (stereo unspecified)
inactive: dose: 100.0 mg/kg/injection, schedule: Q04DX003 (ip), vehicle: other 92 % of control | dose: 200.0 mg/kg/injection, schedule: Q04DX003 (ip), vehicle: other 91 % of control

CC1(C)N=C(N)N=C(N)N1c1cccc(OCCCOc2cccc(NC(=O)CBr)c2)c1
inactive: [15] 95 % of control | [16] 94 % of control | [17] 101 % of control | [18] 103 % of control

CCCCCCCCOC(=O)CC
inactive: [12] 111 % of control | [13] 107 % of control | dose: 400.0 mg/kg/injection, schedule: Q04DX002 (ip), vehicle: saline 100 % of control

OCC1OC(n2ccc3ccc(F)cc32)C(O)C1O (stereo unspecified)
inactive: dose: 60.0 mg/kg/injection, schedule: Q01DX001 (ip), vehicle: saline 97 % of control | dose: 120.0 mg/kg/injection, schedule: Q01DX001 (ip), vehicle: saline 108 % of control

Cc1ccc(S(=O)(=O)COS(=O)(=O)C(F)(F)F)cc1
inactive: [8] 93 % of control | [9] 93 % of control

O=C(OCCOCCN1CCCCC1)N1c2ccccc2Sc2cccnc21
inactive: [15] 104 % of control | dose: 6.25 mg/kg/injection, schedule: Q01DX009 (ip), vehicle: saline 102 % of control | [16] 101 % of control | dose: 12.5 mg/kg/injection, schedule: Q01DX009 (ip), vehicle: saline 107 % of control | [17] 98 % of control | dose: 25.0 mg/kg/injection, schedule: Q01DX009 (ip), vehicle: saline 103 % of control | dose: 25.0 mg/kg/injection, schedule: Q04DX003 (ip), vehicle: saline 106 % of control | [18] 101 % of control | [19] 101 % of control | [20] 111 % of control | dose: 80.0 mg/kg/injection, schedule: Q01DX001 (ip), vehicle: saline 101 % of control | [1] 98 % of control | [21] 106 % of control

O=C(CCCl)NC1CC1c1ccccc1 (stereo unspecified)
inactive: [22] 90 % of control | [4] 97 % of control | dose: 200.0 mg/kg/injection, schedule: Q01DX009 (ip), vehicle: saline with Tween-80 95 % of control | [5] 97 % of control | dose: 400.0 mg/kg/injection, schedule: Q01DX009 (ip), vehicle: saline with Tween-80 94 % of control | [6] 95 % of control

CCCCCOC(=O)CCCc1ccc(N(CCCl)CCCl)cc1
inactive: [19] 123 % of control | dose: 100.0 mg/kg/injection, schedule: Q01DX009 (ip), vehicle: saline 86 % of control

O=S(=O)(O)c1cc(O)c2c(O)c(N=Nc3ccccc3[As](=O)(O)O)c(S(=O)(=O)O)cc2c1
inactive: [20] 102 % of control | [21] 98 % of control and 99 % of control | dose: 200.0 mg/kg/injection, schedule: Q04DX003 (ip), vehicle: saline 103 % of control and 120 % of control | dose: 400.0 mg/kg/injection, schedule: Q04DX003 (ip), vehicle: saline 101 % of control and 103 % of control

CC(C)(C)c1ccc(O)cc1
inactive: [22] 89 % of control

Brc1ccc(C2=CSC3=NCCN23)cc1
inactive: [7] 96 % of control | dose: 50.0 mg/kg/injection, schedule: Q04DX003 (ip), vehicle: Klucel (hydroxypropylcellulose) (HPC) 96 % of control

C=CCc1cnc(C(F)(F)F)[nH]c1=O
inactive: dose: 25.0 mg/kg/injection, schedule: Q01DX001 (ip), vehicle: Klucel (hydroxypropylcellulose) (HPC) 93 % of control | dose: 50.0 mg/kg/injection, schedule: Q01DX001 (ip), vehicle: Klucel (hydroxypropylcellulose) (HPC) 94 % of control | dose: 100.0 mg/kg/injection, schedule: Q01DX001 (ip), vehicle: Klucel (hydroxypropylcellulose) (HPC) 94 % of control

O=C1OC(=O)C2C(c3ccccc3)=CC(c3ccccc3)=CC12 (stereo unspecified)
inactive: [1] 98 % of control | [2] 107 % of control | [3] 102 % of control

O=C(O)/C=C/c1ccc(O)c(O)c1
inactive: dose: 100.0 mg/kg/injection, schedule: Q04DX002 (ip), vehicle: gum acacia 92 % of control | dose: 200.0 mg/kg/injection, schedule: Q04DX002 (ip), vehicle: gum acacia 92 % of control | dose: 400.0 mg/kg/injection, schedule: Q04DX002 (ip), vehicle: gum acacia 95 % of control
